Assay results: patent US7915303B2, “Glycopyrronium salts and their therapeutic use” (priority 2005, dated 2011)

What was measured:
Format in all cases: physicochemical
[1] = TG-FTIR thermal stability (weight loss / degradation)
[2] = Glass transition temperature by differential scanning calorimetry (DSC); settings: for glass transition temperature (Tg) compared with glycopyrronium bromide: comparison with glycopyrronium bromide (1)
[3] = Characterisation of moisture sorption (hygroscopicity) of the amorphous form; settings: sorption of moisture at low relative humidity
Source text: Part of the development of glycopyrronium bromide involves milling of the active substance down to a particle size suitable for use in a dry powder inhalation formulation. […] This material becomes sticky upon sorption of moisture at low relative humidity (RH), and then finally crystallises to a non-hygoscopic hard crystalline substance.
The amorphous form of glycopyrronium iodide (2), for example, can be formed by physical techniques such as spray drying or lyophylisation and its sorption behaviour studied by dynamic vapour sorption (DVS) varying RH over time.

hygroscopicity of the amorphous form [3] | glass transition temperature (Tg) ([2]; amorphous material, determined by DSC) | Molecule | TG-FTIR weight loss / degradation [1] | glass transition temperature (Tg) compared with glycopyrronium bromide [2] | Tg (glass transition) ([2]; lyophilized material, DSC second scan)
 |  | Glycopyrronium Iodide | no significant weight loss below 200° C., degrades above this temperature | lower glass transition temperature (Tg) than glycopyrronium bromide | 55 °C
highly hygroscopic | 64.9 °C | C[N+]1(C)CCC(OC(=O)C(O)(c2ccccc2)C2CCCC2)C1 (stereo not drawn) [glycopyrronium bromide, reference compound] |  |  | 
 |  | Glycopyrronium Sulphate | no significant weight loss below 200° C., degrades above this temperature | lower glass transition temperature (Tg) than glycopyrronium bromide | 
 |  | Glycopyrronium Acetate | no significant weight loss below 200° C., degrades above this temperature | lower glass transition temperature (Tg) than glycopyrronium bromide | 
